Test results taken from the AptaBench aptamer set (doi:10.1093/nar/gkaf219).
One block for each compound: values may come before it.

How the values were obtained:
Conditions in all cases: 10 mM Tris-HCl, pH 7.4
[1] = test system: DNA aptamer or structured DNA CTTACGACAGGCGGTGTGGTGCTGGGAATAGGGATGGTGTCGTAAG
[2] = test system: DNA aptamer or structured DNA CTTACGACAATCTTTTGGGTGTTCTGGGTGAGGTGTTTGTCGTAAG
[3] = test system: DNA aptamer or structured DNA CTTACGACACAGGGGGGGGCTAGGGTGCGCGGGAGCTGGTCGTAAG
[4] = test system: DNA aptamer or structured DNA CTTACGACGAGCGCGTGTGGCCGGCGTGAGGGAGGTGAGTCGTAAG
[5] = test system: DNA aptamer or structured DNA CTTACGACGGAGGTTGGGAAGGAGGGGGAGGCCGGAGAGTCGTAAG
[6] = test system: DNA aptamer or structured DNA GGGACGACGGAGGTGTAGGGTTTAGGTAGTGGTTTGAAGTCGTCCC
[7] = test system: DNA aptamer or structured DNA CTTACGACAAGGGATGTGTAGTTAGTGGTCGGATCCGAGTCGTAAG
[8] = test system: DNA aptamer or structured DNA CTTACGACGGGTGCTGTTGGTTCTAGGGGTAGGATGGCGTCGTAAG
[9] = test system: DNA aptamer or structured DNA CTTACGACGGTGGTGTGGTACTGGGCTTGGGGGGTGTTGTCGTAAG
[10] = test system: DNA aptamer or structured DNA CTTACGACGGGTGCCGTTGGTTCTAGGGGTAGGATGGCGTCGTAAG
[11] = test system: DNA aptamer or structured DNA CTTACGACGTGTGCTGTTGGTTCTAGGGTAGGATGGCGTCGTAAG
[12] = test system: DNA aptamer or structured DNA CTTACGACACAGGGTGTGTTGTGCTCAGTGGTGTATGTGTCGTAAG
[13] = test system: DNA aptamer or structured DNA CTTACGACACTGGCAGGAGGGTCGGGTGTGGGAACGTGGTCGTAAG
[14] = test system: DNA aptamer or structured DNA CTTACGACGGGTGCCGTTGGTTCTAGGGTTAGGATGGCGTCGTAAG
[15] = test system: DNA aptamer or structured DNA CTTACGACCACCATGGGAATCGGGTGGCTTGGAGGTGCGTCGTAAG
[16] = test system: DNA aptamer or structured DNA CTTACGACGGGTGCTGTTGGTTCTAGGGTTAGGATGGCGTCGTAAG
[17] = test system: DNA aptamer or structured DNA CTTACGACTAGTTCCGGGTAGGGGTAGGCGTGGTTGTGGTCGTAAG
[18] = test system: DNA aptamer or structured DNA CTTACGACGTTGGGCTTATTAGGGGCTGGAGTGGGTGAGTCGTAAG
[19] = test system: DNA aptamer or structured DNA GGGACGACTAGGGCTTAGGGTTTAGGTGTGGGGTGTAAGTCGTCCC
[20] = test system: DNA aptamer or structured DNA TTCAAATCTGAGCAGCCTAGTTACTGACGGGTTTATAGTACTCGTATTGAGTCTAGATTTGAA
[21] = test system: DNA aptamer or structured DNA CTTACGACACACGGTGTGGATGAGGTGGGCTAATAGGGGTCGTAAG
[22] = test system: DNA aptamer or structured DNA CTTACGACACAGGGGGTGGCTAGGGTGCGCGGGAGCTGGTCGTAAG
[23] = test system: DNA aptamer or structured DNA CTTACGACAATGGGGCAGTTCTAGTTGGGGTTTATATTGTCGTAAG
[24] = test system: DNA aptamer or structured DNA CTTACGACTTTGGTTTCCTCGATTCGCATGGGTGGTAAGTCGTAAG
[25] = test system: DNA aptamer or structured DNA CTTACGACACATTTGGGTATTCTGGGTGAGCTGTGTCGTAAG
[26] = test system: DNA aptamer or structured DNA CTTACGACGTGTGCTGTTGGTTCTAGGGTTAGGATGGCGTCGTAAG
[27] = test system: DNA aptamer or structured DNA CTTACGACGAGCATCGGTTTTTTCGGTGATGTCTGGGAGTCGTAAG
[28] = test system: DNA aptamer or structured DNA CTTACGACCAGGCTACGTGGGGGAGGGTGGGAAGACGGGTCGTAAG
[29] = test system: DNA aptamer or structured DNA GGGACGACTGCTTGGGTAGGTCGGGCTTGGGTTCGGCGGTCGTCCC
[30] = test system: DNA aptamer or structured DNA TTCAAATCTGAGCAGCCTAGTTACTGACGGGTTTATAGTACTCGCATTGAGTCTAGATTTGAA
[31] = test system: DNA aptamer or structured DNA GGGACGACTAGCTGGTGCGTTGTCCGAAGTCATGAGTAGTCGTCCC
[32] = test system: DNA aptamer or structured DNA CTTACGACTACGGTTGGTTCAGGGGGTAGGTGCTTTGGGTCGTAAG
[33] = test system: DNA aptamer or structured DNA GGGACGACAGCTTGGCTTGGTCGGGGTAGGGTTCGGATGTCGTCCC
[34] = test system: DNA aptamer or structured DNA CTTACGACATGGGATGTGTAGTTAGTGGTCGGATCCGAGTCGTAAG
[35] = test system: DNA aptamer or structured DNA TTCAAATCTTATGTACGTTCTATCGCATGGATGGGATTTTGGGTTACCTAGTCTAGATTTGAA
For binding call in this document: call rule not given here.

Structure (SMILES): COC(=O)[C@@H]1C2CCC(C[C@@H]1OC(=O)c1ccccc1)N2C (some centres undefined)
Kd [1]: 266 nM
Kd [2]: 378 nM
Kd [3]: 282 nM
binding call [4]: no binding
binding call [5]: no binding
binding call [6]: binds
Kd [7]: 2650 nM
Kd [8]: 107 nM
Kd [9]: 335 nM
Kd [10]: 1350 nM
Kd [11]: 93 nM
binding call [12]: no binding
binding call [13]: no binding
Kd [14]: 313 nM
binding call [15]: no binding
Kd [16]: 57 nM
Kd [17]: 70 nM
Kd [18]: 617 nM
binding call [19]: no binding
binding call [20]: no binding
Kd [21]: 69 nM
Kd [22]: 76 nM
Kd [23]: 345 nM
Kd [24]: 239 nM
Kd [25]: 602 nM
Kd [26]: 98 nM
binding call [27]: no binding
binding call [28]: no binding
binding call [29]: no binding
binding call [30]: no binding
binding call [31]: no binding
Kd [32]: 198 nM

Structure (SMILES): COc1ccc2c3c1O[C@H]1C(=O)CC[C@@]4(O)[C@@H](C2)N(C)CC[C@]314
binding call [1]: no binding
binding call [2]: no binding
binding call [3]: no binding
binding call [33]: no binding
binding call [6]: no binding
binding call [7]: no binding
binding call [34]: no binding
binding call [11]: no binding
binding call [14]: no binding
binding call [16]: no binding
binding call [17]: binds
binding call [18]: no binding
binding call [19]: no binding
binding call [22]: binds
binding call [23]: no binding
binding call [24]: no binding
binding call [25]: no binding
binding call [26]: no binding
binding call [29]: no binding

Structure (SMILES): CNC(C)Cc1ccc2c(c1)OCO2 (centres undefined)
binding call [1]: binds
binding call [2]: no binding
binding call [3]: no binding
binding call [6]: binds
binding call [8]: no binding
binding call [9]: no binding
binding call [11]: binds
binding call [35]: binds
binding call [14]: no binding
binding call [16]: binds
binding call [18]: no binding
binding call [19]: no binding
binding call [20]: no binding
binding call [22]: binds
binding call [23]: no binding
binding call [25]: no binding
binding call [26]: no binding
binding call [30]: no binding
binding call [32]: no binding

Structure (SMILES): CC(N)Cc1ccccc1 (centres undefined)
binding call [1]: no binding
binding call [2]: no binding
binding call [33]: no binding
binding call [6]: no binding
binding call [7]: no binding
binding call [8]: no binding
binding call [11]: no binding
binding call [35]: binds
binding call [14]: no binding
binding call [16]: no binding
binding call [19]: no binding
binding call [20]: binds
binding call [23]: no binding
binding call [25]: no binding
binding call [26]: no binding
binding call [29]: no binding
binding call [30]: no binding

binding call [1]: binds
binding call [2]: binds
binding call [3]: no binding
binding call [7]: no binding
binding call [8]: binds
binding call [9]: no binding
binding call [34]: binds
binding call [10]: binds
binding call [11]: binds
binding call [35]: binds
binding call [14]: binds
binding call [16]: binds
binding call [17]: binds
binding call [18]: no binding
binding call [20]: binds
binding call [21]: no binding
binding call [22]: binds
binding call [23]: binds
binding call [24]: no binding
binding call [25]: binds
binding call [26]: binds
binding call [30]: binds
binding call [32]: binds
Structure (SMILES): NCCc1ccc(O)c(O)c1

binding call [1]: no binding
binding call [2]: no binding
binding call [3]: no binding
binding call [7]: binds
binding call [8]: no binding
binding call [34]: no binding
binding call [10]: no binding
binding call [11]: no binding
binding call [14]: no binding
binding call [16]: no binding
binding call [18]: no binding
binding call [21]: no binding
binding call [22]: no binding
binding call [23]: no binding
binding call [25]: no binding
Structure (SMILES): CC(C)Cc1ccc(C(C)C(=O)O)cc1 (centres undefined)

Structure (SMILES): CN1C2CCC1[C@@H](C(=O)O)[C@@H](OC(=O)c1ccccc1)C2 (some centres undefined)
binding call [1]: no binding
binding call [2]: no binding
binding call [3]: no binding
binding call [8]: binds
binding call [9]: no binding
binding call [34]: no binding
binding call [10]: no binding
binding call [11]: binds
binding call [14]: binds
binding call [16]: binds
binding call [17]: no binding
binding call [18]: binds
binding call [21]: binds
binding call [22]: binds
binding call [23]: no binding
binding call [24]: no binding
binding call [25]: no binding
binding call [26]: no binding
binding call [32]: binds

Structure (SMILES): Cc1nnc2n1-c1ccc(Cl)cc1C(c1ccccc1)=NC2
binding call [1]: no binding
binding call [6]: no binding
binding call [9]: no binding
binding call [34]: no binding
binding call [10]: no binding
binding call [35]: no binding
binding call [19]: no binding
binding call [20]: no binding
binding call [21]: no binding
binding call [22]: no binding
binding call [23]: no binding
binding call [24]: no binding
binding call [25]: no binding
binding call [30]: no binding
binding call [31]: no binding
